This data set is described as follows: in vitro. Particulars: human, hela cells, % viability.

For orientation: viability means a read-out of living cells in per cent, often relative to untreated cells. Take `COc1ccc2c(CCNC(=O)C(c3ccccc3)c3ccccc3)c[nH]c2c1` [CBK269294]: the viability at 28.5 h, 10 µM worked out at 81.3%.
With `Cc1cc(C)n(C2CCN(Cc3ccc(-n4ccnc4C)cc3)CC2)n1` [CBK281976], the viability at 28.5 h, 10 µM came to 112%.
As for `C=C(C)CN1CCN(Cc2c[nH]nc2C(C)(C)C)CC1` [CBK282827], the viability at 28.5 h, 10 µM was found to be 92.6%.
As for `COc1ccccc1C1OC(=O)CC1C(=O)N1CCN(c2ccc(Cl)cc2)CC1` (centres unmarked) [CBK091332], the viability at 28.5 h, 10 µM was determined as 86.2%.
Consider `COCCCN1C(=O)C(O)=C(C(=O)c2ccc(C)o2)C1c1ccc(Br)cc1` (centres unmarked) [CBK264876], for which the viability at 28.5 h, 10 µM turned out to be 90.9%.
As for `Cc1ccc2c(c1)C(NC(=O)C1CC1)CC1(CCOCC1)O2` (centres unmarked) [CBK284879], the viability at 28.5 h, 10 µM worked out at 93.4%.
In the case of `Cn1ccnc1CNC(=O)N1CCCC(C(=O)c2cccc(Cl)c2)C1` (centres unmarked) [CBK307479], the viability at 28.5 h, 10 µM came to 105%.
As to `Cc1cc(NC(=O)C2CCN(C(=O)CCSc3ccccc3)CC2)no1` [CBK304329], the viability at 28.5 h, 10 µM turned out to be 99%.
Regarding `CC1=NN(c2ccc(S(N)(=O)=O)cc2)C(=O)/C1=C\c1ccc(-c2ccc(Cl)c([N+](=O)[O-])c2)o1` [CBK263612], the viability at 28.5 h, 10 µM came out at 98.8%.
With `CC(=O)CSc1nc2c(c(=O)n(C)c(=O)n2C)n1CCCc1ccccc1` [CBK269581], the viability at 28.5 h, 10 µM is 84.6%.
With `COc1ccc(Oc2nccc(-c3ccccc3)c2C#N)cc1` [CBK291158], the viability at 28.5 h, 10 µM was 98.7%.
Take `CCOC(=O)Cc1csc(NS(=O)(=O)c2ccc(OC(F)(F)F)cc2)n1` [CBK000852]: the viability at 28.5 h, 10 µM turned out to be 110%.
Turning to `OC1(c2cccnc2)CCCC2CN(Cc3ccc(F)c(F)c3)CC21` (centres unmarked) [CBK284511], the viability at 28.5 h, 10 µM was found to be 101%.
As to `Cc1cccc(-n2c(N)cc(=O)nc2SC(C)C(=O)Nc2ccc(S(N)(=O)=O)cc2)c1` (centres unmarked) [CBK266173], the viability at 28.5 h, 10 µM is 99.7%.
Turning to `CS(=O)(=O)c1ccc(CN2C[C@@H]3OCC(=O)N(c4ccccc4)[C@@H]3C2)cc1` [CBK289237], the viability at 28.5 h, 10 µM is 93.2%.
`CCNc1cccnc1N1CCN(CCc2cc(C)c(O)c(C)c2)CC1` [CBK024361C]: the viability at 28.5 h, 10 µM turned out to be 108%.
With `O=C(NC1CCCC1)C1CCCN1c1nc(O)cc(C(F)(F)F)n1` (centres unmarked) [CBK003927], the viability at 28.5 h, 10 µM came out at 83.5%.
Take `O=C(Nc1ccc(Cl)cc1)Nc1cc(S(=O)(=O)N2CCCC2)ccc1Cl` [CBK266122]: the viability at 28.5 h, 10 µM was found to be 98%.
With `CN1C(=O)c2ccccc2C(O)C2(C)CN(Cc3ccccc3)CC12` (centres unmarked) [CBK282849], the viability at 28.5 h, 10 µM stood at 108%.
The same measure for `O=C(NCc1nnc(-c2cccs2)o1)C1(c2ccc(F)cc2)CC1` [CBK284638]: 74.4%.
For `Cc1ccc(C2(O)CCN(CCNC(=O)C3CC3C)CC2)cc1` (centres unmarked) [CBK282607], the viability at 28.5 h, 10 µM amounted to 83.9%.
Take `CCn1cc(CN(Cc2cccnc2)Cc2ccccc2OC)cn1` [CBK307224]: the viability at 28.5 h, 10 µM was 84.2%.
Turning to `O=C(CCS(=O)(=O)c1ccc(Br)cc1)OCC(=O)c1ccccc1` [CBK021886], the viability at 28.5 h, 10 µM stood at 104%.
Regarding `Cc1sc2nc(C(C)C)n(C3CCNCC3)c(=O)c2c1C` [CBK282407], the viability at 28.5 h, 10 µM is 100%.
In the case of `O=C(NC(=S)Nc1ccc2[nH]c(=O)[nH]c2c1)c1ccc(OCc2ccccc2)cc1` [CBK268908], the viability at 28.5 h, 10 µM is 83.8%.
For the compound `O=C1CCC(=O)N1CCN1C(=O)C2(CC(=O)N(Cc3ccccc3)C2=O)c2ccccc21` (centres unmarked) [CBK075705], the viability at 28.5 h, 10 µM turned out to be 101%.
Take `O=C(C1CCCC1)N1CCC[C@@H]1Cn1c(=O)oc2ccccc21` [CBK284539]: the viability at 28.5 h, 10 µM was 87.3%.
The value for `c1csc(-c2cncc(NCCCN3CCOCC3)n2)c1` [CBK065623] was 102%.
With `O=c1cc2oc3cc(O)c(O)cc3c(-c3cccc(OCc4ccc([N+](=O)[O-])cc4)c3)c-2cc1O` [CBK265388], the viability at 28.5 h, 10 µM amounted to 91%.
As to `Cc1nn(C)cc1-c1cncn1CC(C)N1CCCCC1` (centres unmarked) [CBK281781], the viability at 28.5 h, 10 µM came out at 92.1%.
On to `O=C1NCCCC12CCN(Cc1cccc3ncccc13)CC2` [CBK285033], for which the viability at 28.5 h, 10 µM is 101%.
Consider `CC(C)(C)c1ccc(S(=O)(=O)NCc2ccc(C(=O)NCc3ccccn3)cc2)cc1` [CBK267248], for which the viability at 28.5 h, 10 µM came to 115%.
The same measure for `COc1ccc(C(=O)Nc2nc(-c3nc4ccccc4s3)cs2)cc1` [CBK287563]: 102%; for `Cc1cc(C)c(-n2cccn2)c(CN2CCC(CO)C2)c1` (centres unmarked) [CBK282915]: 87.1%.
On to `O=C(COc1ccc(-c2cc(-c3ccccc3)c3cc(Cl)ccc3n2)cc1)N/N=C/c1ccc2ncccc2c1` [CBK263365], for which the viability at 28.5 h, 10 µM was 95.8%.
Turning to `Cc1csc(Nc2cccc(C3CCCN3C(=O)CCOc3ccccc3C)n2)n1` (centres unmarked) [CBK285977], the viability at 28.5 h, 10 µM was determined as 101%.
`CCN(CC)C(=O)CN1CCN(c2nccnc2Oc2ccc(F)cc2)CC1` [CBK083020T]: the viability at 28.5 h, 10 µM is 87.9%.
As to `CCOc1ccc(CNc2ccc(C3c4ccsc4CCN3C(C)=O)cc2)cc1` (centres unmarked) [CBK286451], the viability at 28.5 h, 10 µM stood at 96.3%.
The value for `Cc1nc(N)nc(NCCC2CCCOC2)c1Cl` (centres unmarked) [CBK307353] was 97.1%; that for `O=C(Nc1c(F)cc(F)cc1OC1CCNCC1)c1ccccn1` [CBK050274T] was 94.8%; that for `O=C(C[n+]1cccc(C(=O)N/N=C/c2ccc(Br)cc2)c1)c1ccccc1` [CBK262063B] was 90.1%.
With `CC1CCCN(CCCNS(=O)(=O)c2ccc(N3CCCC3=O)cc2)C1` (centres unmarked) [CBK304213], the viability at 28.5 h, 10 µM came out at 90%.
On to `COCc1cc(C)nc2c1C(=O)NC(c1ccccc1C(=O)O)N2Cc1ccccc1` (centres unmarked) [CBK286599], for which the viability at 28.5 h, 10 µM stood at 92.3%.
Regarding `Cc1cc(Cl)c(S(=O)(=O)N2CCN(c3ccc(F)cc3)CC2)cc1OCC(N)=O` [CBK266439], the viability at 28.5 h, 10 µM was found to be 98.3%.
As for `O=c1[nH]c2ncc(-c3ccoc3)nc2n1Cc1ccco1` [CBK064639], the viability at 28.5 h, 10 µM turned out to be 102%.
The value for `CN(C)C(=O)c1nccnc1-c1ccc(COc2ccc3c(c2)OCO3)cc1` [CBK050829] was 91.1%; that for `O=[N+]([O-])c1ccccc1S(=O)(=O)N1CCN(S(=O)(=O)c2ccc3ccccc3c2)CC1` [CBK264296] was 107%; that for `COc1ccc(CN(C)c2c(C)nc3c(OCC(=O)N4CCOCC4)cccn23)cc1` [CBK147469] was 102%.
`Cc1onc(-c2ccccc2)c1C(=O)Nc1cccc(S(=O)(=O)N2CCOCC2)c1` [CBK268159]: the viability at 28.5 h, 10 µM was determined as 101%.
As to `COCn1nccc1S(=O)(=O)NCCc1cn2ccccc2n1` [CBK304060], the viability at 28.5 h, 10 µM turned out to be 80.6%.
For the compound `CN(C)c1ccc(C(=O)N2CCC(c3cc4cnccc4[nH]3)CC2)cc1` [CBK283446], the viability at 28.5 h, 10 µM is 83.8%.
Turning to `Cc1occc1-c1nn(C2CCNCC2)c(=O)o1` [CBK284757], the viability at 28.5 h, 10 µM was found to be 98.5%.
Consider `Cc1ncsc1CCOc1nc2ccccc2nc1NC(C)C` [CBK115736], for which the viability at 28.5 h, 10 µM was determined as 102%.
`O=C(Nc1ccc(F)cc1)c1ccc(=O)n(CC(=O)N2CCC3(CCCCC3)C2)c1` [CBK286006]: the viability at 28.5 h, 10 µM turned out to be 94.9%.
Consider `COc1cccc2sc(N(Cc3cccnc3)C(=O)c3ccc(S(=O)(=O)N(C)C)cc3)nc12` [CBK294420], for which the viability at 28.5 h, 10 µM is 103%.
For `O=C(COc1ccccc1)N1CCC(c2cccc(Cc3ccccc3F)n2)CC1` [CBK286211], the viability at 28.5 h, 10 µM came out at 104%.
For the compound `CS(=O)(=O)Nc1nccnc1N1CCN(Cc2ccccc2)CC1` [CBK084268], the viability at 28.5 h, 10 µM is 96.5%.
As for `O=C(O)CCC(C(=O)O)N1C(=O)/C(=C\C(Cl)=C/c2ccc([N+](=O)[O-])cc2)SC1=S` (centres unmarked) [CBK261011], the viability at 28.5 h, 10 µM was determined as 92.1%.
Take `CC(/C=C/c1ccc(N(C)C)cc1)=N\NC(=N)SC1CC(=O)N(c2ccc(C(=O)O)cc2)C1=O` (centres unmarked) [CBK262460]: the viability at 28.5 h, 10 µM was found to be 91.6%.
As to `Cc1ccc(S(=O)(=O)N2CCC(C(=O)NC3(C(=O)O)CCCCC3)CC2)cc1` [CBK295644], the viability at 28.5 h, 10 µM was 109%.
The same measure for `O=C(O)c1cccc(-n2ncc(-c3ccccc3C(F)(F)F)n2)c1` [CBK112721]: 98.1%.
The same measure for `CN(C)CCN(C)c1cccc(/C=C/c2ccccc2)n1` [CBK036826]: 109%.
Turning to `O=C(Nc1cccc2nsnc12)c1cc(Cl)ccc1NS(=O)(=O)c1cccc2nsnc12` [CBK261129], the viability at 28.5 h, 10 µM turned out to be 80.9%.
`O=C(c1cc(F)cc(F)c1)N1CCC(O)(c2cccnc2F)CC1` [CBK284361]: the viability at 28.5 h, 10 µM amounted to 92.7%.
As for `CCOC(=O)CC(O)(c1ccc(OC)cc1)c1cc(C)no1` (centres unmarked) [CBK023133], the viability at 28.5 h, 10 µM was determined as 107%.
`Cc1nn(-c2cccc(C(=O)NC3CCCOC3)c2)c(C)c1Cl` (centres unmarked) [CBK282512]: the viability at 28.5 h, 10 µM turned out to be 83.6%.
For `CCNC(=O)Nc1ncc(-c2ccc(C(C)(C)C)cc2)c2cccnc12` [CBK070632], the viability at 28.5 h, 10 µM worked out at 98.6%.
As for `CCCn1c(SCC(=O)NC2CCN(CC)CC2)nc2cc(Cl)ccc21` [CBK305027], the viability at 28.5 h, 10 µM amounted to 104%.
As to `Cc1ccc2[nH]c(Cc3ccc(NC(=O)c4cc(=O)n(C)c5ccccc45)cc3)nc2c1` [CBK285815], the viability at 28.5 h, 10 µM came out at 98.5%.
Take `O=C(CCCN1CCN(C(=O)NC2CCC(O)CC2)CC1)c1ccc(F)cc1` (centres unmarked) [CBK025156C]: the viability at 28.5 h, 10 µM was 97%.
As to `CCCN(C(C)C(=O)N(C)C)S(=O)(=O)c1ccc(Cl)cc1` (centres unmarked) [CBK016123], the viability at 28.5 h, 10 µM was found to be 96.8%.
As to `O=C(COc1ccc(Br)cc1C(=O)O)Nc1ccc(F)cc1` [CBK286671], the viability at 28.5 h, 10 µM is 92%.
`CC(C)CNC(=O)N1CCN(CCN2CCOCC2)CC1` [CBK155826]: the viability at 28.5 h, 10 µM stood at 88.1%.
The value for `O=C(O)CSc1nc2ccccc2n1CC(=O)O` [CBK267128] was 102%; that for `Nn1cnn2c(SCC(=O)c3ccccc3)nnc12` [CBK263194] was 99.8%.
Consider `O=c1n(C(c2ccccc2)c2ccccc2)ccn1S(=O)(=O)c1cccc(Cl)c1` [CBK106615], for which the viability at 28.5 h, 10 µM turned out to be 91.5%.
The value for `Cc1nn(Cc2ccccc2)c(C)c1NC(=O)CSc1nc2c(c(C(F)(F)F)n1)CCc1ccccc1-2` [CBK266112] was 105%.
